{
  "source": "patent US20110166038A1",
  "about": "“SCREENING METHODS FOR HEAT-SHOCK RESPONSE MODULATORS” (SCREENING METHODS FOR HEAT-SHOCK RESPONSE MODULATIORS, priority 2008, published 2011)",
  "type_in_all_cases": "cell-based",
  "key": {"HSP70 [1]": {"tested_on": "HSP70", "assay": "MaCRA HCS HSP70 granule assay, heat shock 41° C.", "details": "Homo sapiens, HeLa, read-out: EC50 of HSP granule area", "description": "(§1) This experiment was directed to developing of a HSF1/HSP70 high-content screening (HCS) assay for screening HSF1 activators. HeLa cells were pretreated with a compound (celastrol) one hour before heat shock at 41° C. for two hours. The dilution in Dulbecco's Modified Eagle's Medium (DMEM) was 200-fold resulting in a final concentration of 30 μM for screening. A custom made aluminum plate was designed for better heat transduction and to achieve a constant temperature with minimal variability for the 96-well plate. The aluminum plate was placed inside a 41° C. incubator for one day prior to the experiment.\nImmunocytochemical staining for HSF1 and HSP70 in HeLa cells was performed as in Zhang et al., Biomol Screen., 13(6):538-543, 2008. Image acquisition was performed using an INcell 1000 (GE Healthcare, Piscataway, N.J.) integrated with a Twister II (Caliper Life Sciences, Hopkinton, Mass.) for automated plate delivery. […]\nA Multi Target Analysis Module (MTA) module from Workstation software (GE Healthcare) provides a high-speed measurement of nuclear granules including granule count, granule area, granule intensity and nuclear intensity CV (CV of pixel intensity in the nucleus). FIGS. 2A and 2B provide a quantification of HSF1 variables via granule count and nuclear intensity CV. FIGS. 2C and 2D adopted granule count and granule area for the quantification of HSP70 granules. […]"}, "HSF1 [2]": {"tested_on": "HSF1", "assay": "MaCRA HCS HSF1 granule assay, heat shock 41° C.", "description": "as §1\nImmunocytochemical staining for HSF1 and HSP70 in HeLa cells was performed as in Zhang et al., Biomol Screen., 13(6):538-543, 2008. Image acquisition was performed using an INcell 1000 (GE Healthcare, Piscataway, N.J.) integrated with a Twister II (Caliper Life Sciences, Hopkinton, Mass.) for automated plate delivery. Image analysis was carried out using a Multi Target Analysis module from Workstation 3.6. Algorithms for HSF1/HSP70 granule count, granule area and nuclear intensity CV were established according to assay conditions and manufacture instructions. EC50 values and curve fitting were performed using a Prism 4.0 (GraphPad Software, San Diego, Calif.) with nonlinear regression analysis.\nA Multi Target Analysis Module (MTA) module from Workstation software (GE Healthcare) provides a high-speed measurement of nuclear granules including granule count, granule area, granule intensity and nuclear intensity CV (CV of pixel intensity in the nucleus). FIGS. 2A and 2B provide a quantification of HSF1 variables via granule count and nuclear intensity CV. FIGS. 2C and 2D adopted granule count and granule area for the quantification of HSP70 granules.\nBy comparison, DMSO-treated cells contain, on average, 2.46±0.22 granules. To achieve a relatively low background, HeLa cells that contained more than 5 HSF1 granules were designated as “HSF1 granule positive cells”. The thresholds for HSF1 nuclear intensity CV, HSP70 granule count and HSP70 granule area were also chosen with gating values equivalent to the average of DMSO treated samples plus 2 or more standard deviations (FIG. 2B-2D).\nExperiment 3: HeLa cells were seeded in Costar 96-well assay plates (Costar 3904) at a density of 8,000 cells/well approximately 16 to 24 hours before compound treatment. Subsequently, the cells were treated with DMSO. […] Heat shock was carried out at 41° C. for 2 hours with no recovery time. Immediately following heat shock, 50 μL of 16% para-formaldehyde was mixed with the culture medium (total volume at 150 μL) to a final concentration of 4%. The plates were incubated at room temperature for 30 minutes before washing with PBS. […]"}, "HSP70 [3]": {"tested_on": "HSP70", "assay": "HSP70 inhibitor assay, heat shock 43° C.", "details": "HeLa, 1 μM triptolide or 10 μM CYT compound, 43° C. 1-4 hours, recovery 0-7 hours", "description": "Experiment 2: HeLa cells were treated with 1 μM of Triptolide and 10 μM of CYT975 (▪), CYT1563 (▴) and CYT1590 ([…]) 30 minutes before heat shock. The cells subsequently underwent heat shock at 43° C. for 1 hour with 0, 5 or 7 hours recovery time with total HSP70 nuclear and cell intensity as the threshold.\nExperiment 3: HeLa cells were treated with 1 μM of Triptolide and 10 μM of CYT975 (▪), CYT1563 (▴) and CYT1590 ([…]) 30 minutes before heat shock. The cells subsequently underwent heat shock at 43° C. for 2 hours with 0, 4 or 6 hours recovery time with total HSP70 nuclear and cell intensity as the threshold.\nExperiment 4: HeLa cells were treated with 1 μM of Triptolide and 10 μM of CYT975 (▪), CYT1563 (▴) and CYT1590 ([…]) 30 minutes before heat shock. The cells subsequently underwent heat shock at 43° C. for 3 hours with 0, 3 or 5 hours recovery time with total HSP70 nuclear and cell intensity as the threshold. […]\nExperiment 3: HSP70 expression induced by Triptolide (▪), CYT1563 (▴) and DMSO (0, control) was evaluated in a 96-well plate format (See Example 4) following heat shock at 43° C. for 2 hours with 4 hours recovery time. […]\nExperiment 4: HSP70 expression induced by Triptolide (▪), CYT1563 (▴) and DMSO (♦, control) was evaluated in a 96-well plate format (See Example 4) following heat shock at 43° C. for 4 hours with 4 hours recovery time. […]"}, "HSF1 [4]": {"tested_on": "HSF1", "assay": "HSF1 granule inhibitor assay, heat shock 43° C.", "details": "HeLa, 10 nM-10 μM, 43° C. 1-4 hours, threshold 5 granules/nucleus", "description": "Experiment 1: HeLa cells were treated with four different […] (10 nM, 100 nM, 1 μM and 10 μM) of triptolide and subsequently underwent heat shock at 43° C. for 1 to 4 hours. […] HSF1 granule count was measured with 5 granules/nucleus used as the threshold. Similar assay conditions were used to test the effect of various compounds selected using MaCRA methods as described herein.\nExperiment 1: HSF1 granule formation induced by Triptolide (▪), CYT1563 (▴) and DMSO (♦, control) was evaluated in a 96-well plate format (See Example 4) following heat shock at 43° C. for 2 hours with no recovery time. FIG. 26A illustrates the HSF1 inhibition.\nExperiment 2: HSF1 granule formation induced by Triptolide (▪), CYT1563 (▴) and DMSO (♦, control) was evaluated in a 96-well plate format (See Example 4) following heat shock at 43° C. for 4 hours with 4 hours recovery time. FIG. 26B illustrates the HSF1 inhibition.\nHeLa cells were treated with DMSO (♦) or CYT 1563 (10 μM) (▪) and subsequently heat shocked at 43° C. for 2 h with no recovery time using HSF1 granule count in a 384-well plate format (See Example 10). Results including the Z′ values and Signal/Background (S/B) ratio are illustrated in FIG. 27."}, "SH-SY5Y cells": {"tested_on": "SH-SY5Y cells", "assay": "Rotenone model, MTS readout", "details": "100 nM for 24 hours", "excerpt": "This experiment tests the hits from the MaCRA HSF1 activator screening in a secondary rotenone assay for cytoprotective effects of test compounds on SHSY5Y cells. The rotenone model of Parkinson's disease is an in vitro system for study of protein aggregation induced cytotoxicity. […] See Greenamyre et al., Parkinsonism Relat. Disord., Suppl 2:S59-S64 (2003). Therefore, this in vitro system may be adopted to evaluate cytoprotective effects of the HSF1/HSP70 MaCRA screening hits as carried out essentially as described in Sherer et al., J. Neuroscience, 23(34):10756-10764, 2003. […] In summary, the small molecule HSF1/HSP70 amplifier identified from our HSF1/HSP70 screening can rescue cells from two different stress conditions with cytoprotective benefits, possibly through the mechanism of HSF1/HSP70 amplification."}},
  "data": [
    {"smiles": "CC1=C(O)C(=O)C=C2C1=CC=C1[C@@]2(C)CC[C@@]2(C)[C@@H]3C[C@](C)(C(=O)O)CC[C@]3(C)CC[C@]12C", "note": "[celastrol]", "values": [
      {"measurement": "EC50", "setting": "HSP70 [1]", "result": 650, "unit": "nM"},
      {"measurement": "HSF1 granule positive cells", "setting": "HSF1 [2]; 96-well, 2 μM, 41° C. 2 h, HSF1 granule count", "result": 59.36, "unit": "%"},
      {"measurement": "average HSF1 stress granules per nucleus", "setting": "HSF1 [2]; HeLa, 2 μM, 41° C. for two hours", "result": "5.34±0.72", "unit": "granules per nucleus"},
      {"measurement": "HSF1 stress granules per nucleus, positive control at 43° C.", "setting": "HSF1 [2]; HeLa, heat shock 43° C.", "result": "about 6.56"},
      {"measurement": "EC50", "setting": "HSF1 [2]; Homo sapiens, HeLa, read-out: EC50 of HSF1 intensity CV", "result": 1320, "unit": "nM"}
    ]},
    {"smiles": "CC(C)[C@]12O[C@H]1[C@@H]1O[C@]13[C@]1(O[C@H]1C[C@H]1C4=C(CC[C@@]13C)C(=O)OC4)[C@@H]2O", "note": "[triptolide]", "values": [
      {"measurement": "HSP70 expression after heat shock", "setting": "HSP70 [3]", "result": "reduction of HSP70 expression"},
      {"measurement": "inhibition of HSF1 granule formation", "setting": "HSF1 [4]", "result": "dose dependent inhibition of HSF1 granule formation"}
    ]},
    {"smiles": "C=C(C)[C@H]1Cc2c(ccc3c2O[C@@H]2COc4cc(OC)c(OC)cc4[C@@H]2C3=O)O1", "note": "[rotenone]", "values": [
      {"measurement": "SH-SY5Y cells killed", "setting": "SH-SY5Y cells", "result": "more than 42%"}
    ]}
  ]
}
